Data taken from PubChem BioAssay (NCI).
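Compound exposure: 48 hours, 5 concentrations, 96-well plates. GI50 = concentration required for 50% inhibition of growth. The concentration for full growth arrest is given as TGI.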

Tests used:
Assay in all cases: NCI-60 cell line screen, 48 h
TK-10 renal = test system: TK-10 renal
OVCAR-4 ovarian = test system: OVCAR-4 ovarian
SNB-75 CNS = test system: SNB-75 CNS
EKVX NSCLC = test system: EKVX NSCLC
HOP-92 NSCLC = test system: HOP-92 NSCLC
HCT-15 colon = test system: HCT-15 colon
SNB-19 CNS = test system: SNB-19 CNS
786-0 renal = test system: 786-0 renal
A549 NSCLC = test system: A549 NSCLC
SK-MEL-28 melanoma = test system: SK-MEL-28 melanoma
HS 578T breast = test system: HS 578T breast
SF-268 CNS = test system: SF-268 CNS
T-47D breast = test system: T-47D breast
RXF 393 renal = test system: RXF 393 renal
DU-145 prostate = test system: DU-145 prostate
SK-MEL-5 melanoma = test system: SK-MEL-5 melanoma
SF-539 CNS = test system: SF-539 CNS
OVCAR-3 ovarian = test system: OVCAR-3 ovarian
MCF7 breast = test system: MCF7 breast
K-562 leukemia = test system: K-562 leukemia
SW-620 colon = test system: SW-620 colon
HT29 colon = test system: HT29 colon
NCI-H522 lung = test system: NCI-H522 lung
NCI/ADR-RES ovarian = test system: NCI/ADR-RES ovarian
MOLT-4 leukemia = test system: MOLT-4 leukemia
M14 melanoma = test system: M14 melanoma
CAKI-1 renal = test system: CAKI-1 renal
BT-549 breast = test system: BT-549 breast

## CC1CN(S(=O)(=O)c2oc(-c3ccc(Cl)cc3)nc2C#N)CC(C)O1 (stereo unspecified)
TK-10 renal
  GI50: 1.75 µM
  TGI: 3.26 µM
OVCAR-4 ovarian
  GI50: 2.02 µM
  TGI: 4.65 µM
SNB-75 CNS
  GI50: 10.6 µM
  TGI: 22.7 µM
EKVX NSCLC
  GI50: 7.34 µM
  TGI: 27.9 µM
HOP-92 NSCLC
  GI50: 1.78 µM
  TGI: 3.45 µM
HCT-15 colon
  GI50: 1.41 µM
  TGI: 3.04 µM
SNB-19 CNS
  GI50: 12.5 µM
  TGI: 25 µM
786-0 renal
  GI50: 1.62 µM
  TGI: 3.3 µM
A549 NSCLC
  GI50: 15.5 µM
  TGI: 32.9 µM
SK-MEL-28 melanoma
  GI50: 1.81 µM
  TGI: 3.38 µM
HS 578T breast
  GI50: 3.92 µM
  TGI: 27.2 µM
SF-268 CNS
  GI50: 1.93 µM
  TGI: 4.14 µM
T-47D breast
  GI50: 2.3 µM
  TGI: 6.24 µM
RXF 393 renal
  GI50: 1.69 µM
  TGI: 3.15 µM
DU-145 prostate
  GI50: 1.92 µM
  TGI: 4.1 µM
SK-MEL-5 melanoma
  GI50: 2.27 µM
  TGI: 5.16 µM
SF-539 CNS
  GI50: 1.78 µM
  TGI: 3.28 µM
OVCAR-3 ovarian
  GI50: 1.56 µM
  TGI: 3.12 µM
MCF7 breast
  GI50: 1.59 µM
  TGI: 3.94 µM
K-562 leukemia
  GI50: 2.07 µM
  TGI: > 100 µM
SW-620 colon
  GI50: 1.36 µM
  TGI: 3.09 µM
HT29 colon
  GI50: 2.06 µM
  TGI: 4.11 µM
NCI-H522 lung
  GI50: 0.945 µM
  TGI: 2.79 µM
NCI/ADR-RES ovarian
  GI50: 10.7 µM
  TGI: 65.5 µM
MOLT-4 leukemia
  GI50: 1.19 µM
  TGI: 4.5 µM
M14 melanoma
  GI50: 1.62 µM
  TGI: 3.39 µM
CAKI-1 renal
  GI50: 1.56 µM
  TGI: 2.93 µM
BT-549 breast
  GI50: 1.97 µM
  TGI: 4.49 µM
